Read-outs that look alike come from different tables or passages of the source. Residues, ends and D or L forms follow the SMILES beside them.
Legend:
[1] = parameters: species or system rats; conditions: rat, in vivo
Experimental: Tritium-labeled peptide FQSE (SEQ ID NO:10) was administered intranasally (i.n.) at a dose of 500 μg/kg diluted in saline. The administered sample contained 2000 pKi of tritium-labeled peptide [^3H] FQSE (SEQ ID NO:10). In 6 minutes after the administration, test samples of brain, blood and urine were obtained.
The study was carried out using tritium-labeled peptide FQSE (SEQ ID NO:10). For that, rats were administered with 2000 pKi [^3H] FQSE (SEQ ID NO:10) in dose 500 μg/kg (about 150 μg). The solutions administered to animals were prepared using saline solution. The volume of the solution for intranasal administration was 20 μl for rats.
In rat experiments, product FQSE (SEQ ID NO:10) was administered as a single, bolus, intranasal injection. Preliminarily, rats were anesthetized with chloral hydrate (300 mg/kg), and in 10 min, product FQSE (SEQ ID NO:10) was administered in volume 20 μl, in dose 500 μg/kg which contained 2000 pKi of labeled peptide [^3H]FQSE (SEQ ID NO:10). Rats were decapitated in 6 minutes after the product administration. […]
The quantitative analysis of peptides was performed with HPLC on column Kromasil C18, 4×150 mm in methanol gradient (0-40%), presence of 0.08% TEA and 0.02% HBA (heptafluorobutyric acid). The fractions containing peptide FQSE (SEQ ID NO:10) were collected, and their radioactivity was determined with liquid scintillation counting.

[2] = tested on: benzodiazepine site of GABAA receptors
Experimental: The incubation mixture (final volume 0.5 ml) contained 50 μl of […]

[3] = molecular target: hippocampal NMDA receptors; experiment: Radioligand analysis of NMDA receptors with [3H] (+) MK-801; type: binding, rat; conditions: [3H] (+) MK-801, room temperature, 2 hours; read-out: IC50 of displacement curve
Text: Hippocampal plasma membranes were isolated using modified methods (Zhou et al. (1997). (2S,4R)-4-methylglutamic acid (SYM 2081): a selective, high-affinity ligand for kainate receptors. J. Pharmacol. Exp. Ther., 280(1), 422-427, LePage et al. (2005). Differential binding properties of [^3H] dextrorphan and [^3H] MK-801 in heterologously expressed NMDA receptors. Neuropharmacol., 49(1), 1-16). After decapitation, the tissue was immediately frozen in liquid nitrogen and stored in a low-temperature refrigerator at −80° C. On the day of the experiment, the hippocampi were homogenized “Teflon-glass” in a Potter homogenizer in 10 volumes of buffer No. 1 (5 mM HEPES, 4.5 mM Tris, 0.32 M Sucrose, pH 7.6). The homogenate was diluted with 50 volumes of buffer No. 2 (5 mM HEPES, 4.5 mM Tris, pH 7.6) and centrifuged at 1000 g for 10 minutes on an Optima L-70K ultracentrifuge (Beckman Coulter). The supernatant was […] and centrifuged again at 25000 g for 20 minutes. To increase the protein yield, this operation was performed twice. The resulting precipitate was resuspended in 50 volumes of buffer No. 2 and centrifuged at 8000 g for 20 minutes. […]
The IC50 value with respect to the binding of labeled ligands was determined by adding 50 μl of the test compounds to the incubation medium at final concentrations of 10^−10-10^−4 M. The volume of the incubation mixture was 500 μl. […]

NC(=O)CC[C@H](NC(=O)[C@@H](N)Cc1ccccc1)C(=O)N[C@@H](CO)C(=O)N[C@@H](CCC(=O)O)C(=O)O [FQSE] (H-FQSE-OH)
blood-brain barrier penetration [1]: can penetrate blood-brain barrier
Specific binding of [3H]-Flunitrazepam, relative to control levels ([2]; Diazepam 10^−6M + FQSE 10^−4M, 25 min pre-incubation + 30 min incubation, 4° C.): 101.07%
Specific binding of [3H]-Flunitrazepam, relative to control levels ([2]; Diazepam 10^−6M + FQSE 10^−4M, 25 min pre-incubation + 30 min incubation, 24° C.): 100.58%
Specific binding of [3H]-Flunitrazepam, relative to control levels ([2]; Diazepam 10^−6M + FQSE 10^−4M, 30 min incubation, 4° C.): 100.27%
Specific binding of [3H]-Flunitrazepam, relative to control levels ([2]; Diazepam 10^−6M + FQSE 10^−4M, 30 min incubation, 24° C.): 100.95%
Specific binding of [3H]-Flunitrazepam, relative to control levels ([2]; Diazepam 10^−6M + FQSE 10^−5M, 25 min pre-incubation + 30 min incubation, 4° C.): 101.07%
Specific binding of [3H]-Flunitrazepam, relative to control levels ([2]; Diazepam 10^−6M + FQSE 10^−5M, 25 min pre-incubation + 30 min incubation, 24° C.): 99.78%
Specific binding of [3H]-Flunitrazepam, relative to control levels ([2]; Diazepam 10^−6M + FQSE 10^−5M, 30 min incubation, 4° C.): 100.04%
Specific binding of [3H]-Flunitrazepam, relative to control levels ([2]; Diazepam 10^−6M + FQSE 10^−5M, 30 min incubation, 24° C.): 100.70%

C[C@]12N[C@H](Cc3ccccc31)c1ccccc12 [MK-801]
IC50 [3]: 7 nM
